# Test results as given in patent US20240092744A1, “TRICYCLIC COMPOUND, AND PREPARATION METHOD THEREFOR AND MEDICAL USE THEREOF” (THE NATIONAL INSTITUTES OF PHARMACEUTICAL R&D CO., LTD., priority 2020, published 2024).
# Assays:
# [1] = Determination of aldehyde capture rate (nonenal as model aldehyde, HPLC quantification); details: for Aldehyde consumption (100%): 0.05 mM compound, 0.025 mM nonenal, room temperature; for Capture rate (slope of the capture curve per unit time): higher absolute value of the slope = higher capture rate
# Protocol: In the aldehyde capture test disclosed in the present invention, the stable lipid metabolite, nonenal, was used as the model aldehyde to react with the compound of the Example. The specific protocol was as follows.
# 0.05 mM of the compounds of the Examples of the present invention were precisely weighed respectively and dissolved in 1.2 mL of a mixed solution (v/v=1:1) of triolein (Aladdin, G105172-5g) and linoleic acid (Aladdin, L100442-25g), respectively. 2.5 mL of PBS (Solarbio, P1020) solution containing 20% Captisol® (Aladdin, Cl25030-25 g) was added, and the solution was stirred at room temperature overnight. After the example compound was completely dissolved, 0.025 mM nonenal (Sigma, 255653-5G) was added, and the solution was stirred vigorously at room temperature. […] The solution was mixed vigorously by vortex for 2 minutes, and centrifuged at a low speed of 1000 r/min for 3 minutes. The supernatant was transferred to an injection vial. The nonenal in the reaction mixture was analyzed quantitatively by high performance liquid chromatography. The adduct resulted from the example compound of the present invention and nonenal was analyzed qualitatively by high performance liquid chromatography-mass spectrometry.
# Liquid Chromatograph: Waters I Class;
# Column: ACQUITY UPLC HSS T3 1.8 μm;
# Column temperature: 40° C.;
# Liquid chromatography condition: mobile phase A: acetonitrile containing 0.1% formic acid; B: water containing 0.1% formic acid;
# Injection volume: 0.5 mL.
# Gradient of the mobile phases: […]
# In the developed detection method, the retention time of the model aldehyde nonenal was 2.42 minutes. • Mass spectrometry conditions: • Mass spectrometer: Waters TQ-S micro • Ion source: ESI^+ • Capillary voltage: 0.5 kV • Cone voltage: 10V • Source temperature: 150° C. • Degassing temperature: 500° C., degassing flow: 1000 L/Hr • SIM mode • m/z: 225.24 [(mExample 1−OH)+H]^+, 365.42 [madduct 1+H]^+
# The time-varying diagram of the capture reaction of the compounds of the examples of the present invention to nonenal is shown in FIG. 1.
# [2] = test system: noninfectious uveitis animal model; experiment: Therapeutic effect in lipopolysaccharide-induced noninfectious uveitis animal model (eye drops); type: in vivo, Female lewis rats
# Protocol: Female lewis rats were used as the research subjects. Lewis rats (Vital River) were randomly divided into groups (4 animals per group, a total of 8 eyes). The groups are as follows: normal control group, model control group, and example administration group. The inflammation model was established in these groups except for the normal control group.
# Formulation of eye drops: • (1) Formulation of drug vehicle stock solution: […] of Na2HPO4.12H2O (Xilong Scientific, 9009012-01-09), 19 mg of NaH2PO4.2H2O (Xilong Scientific, 9009013-01-09) and 9500 mg of β-cyclodextrin (Sigma, E1930253) were precisely weighed and dissolved in 30 mL sterile water for injection (Beijing CR Double-Crane), followed by addition of […] of PEG-400 (Solarbio, 222U011). The solution was mixed well, and made up to 50 mL with water for injection. • (2) Formulation of drug solution: 10 mg of the compound of Example 2 of the present invention was weighed and dissolved in 1 mL of the vehicle stock solution, and the resulting solution was made up to 2 mL with water for injection. The content of each substance is as follows: Na2HPO4.12H2O 0.83%, NaH2PO4.2H2O 0.017%, β-cyclodextrin 9.5%, PEG-400 5.0%, active compound 0.5%. • (3) The pH value of the formulated drug solution was determined by pH test paper. If the pH value was not within 7.3±0.05, then it was adjusted to this range with 1 N HCl or 1 N NaOH. […]
# The animal model was a noninfectious uveitis animal model established by intraperitoneal injection of lipopolysaccharide (derived from Escherichia coli, 055:B5, Sigma, L2880-100MG, injection dose: 2 mg/kg). […] The ocular inflammation of the animals in each group was examined with a slit lamp microscope (Jiangxi Jiangfeng, LYL-S), and evaluated according to the McDonald-Shadduck scoring system (GB/T 28538-2012).
# The animals were sacrificed, and the bilateral eyeballs were enucleated. […] Quantitative analysis of total protein in aqueous humor was performed on the supernatant by a BCA protein quantification kit (Beyotime, P0010). […]
# [3] = test system: allergic conjunctivitis animal model; experiment: Therapeutic effect in C48/80-induced allergic conjunctivitis animal model; type: in vivo, Female Wistar rats; details: Wistar rats, 10 μL per eye, examined 20 minutes after administration
# Excerpt: C48/80 is a polymer formed by the condensation of N-methyl-p-methoxyphenethylamine with formaldehyde, which acts directly on G protein and induces mast cell degranulation. After degranulation, the mast cell releases active substances such as histamine and kinin, which can cause acute type I allergic reactions such as telangiectasia and enhanced permeability. It can cause allergic conjunctivitis if applied topically to the ocular surface.
# Female Wistar rats were used as the research subjects. Wistar rats (Vital River) were randomly divided into groups (5 animals per group, a total of 10 eyes). The groups are as follows: normal control group, model control group, positive drug group, and example administration group. The inflammation model was established in these groups except for the normal control group. Emedastine Difumarate Eye Drops (Emadine®, Alcon, H20181192) was used as the positive drug. Model establishment, administration and evaluation processes were as follows. […]
# After 10 minutes of stimulation, different drug treatments were carried out according to the group settings. […] The clinical score was evaluated individually on the eyes of each animal according to the McDonald-Shadduck scoring system (GB/T 28538-2012). […]
Compound,Aldehyde consumption (100%) ([1]; 135 minutes) [%],Capture rate (slope of the capture curve per unit time) ([1]; 135 minutes),Aldehyde consumption (100%) ([1]; 180 minutes) [%],Capture rate (slope of the capture curve per unit time) ([1]; 180 minutes),"Ocular score (McDonald-Shadduck ocular inflammation score) ([2]; 0.5% eye drops, 20 μL/eye, 24 hours after LPS modeling, mean ± standard deviation, model control 17.0 ± 6.4, normal control 4.5 ± 0.8)","Protein concentration in aqueous humor ([2]; 0.5% eye drops, 20 μL/eye, 24 hours after LPS modeling, mean ± standard deviation, model control 1062.7 ± 423.6, normal control 225.5 ± 65.4) [µg/mL]","Therapeutic effect in ocular inflammation animal model (in words) ([2]; LPS-induced uveitis, Lewis rats, eye drops)","Therapeutic effect on allergic conjunctivitis (McDonald-Shadduck score, FIG. 2, in words) [3]"
"Cn1c2ccccc2c2cc(N)c(C(C)(C)O)nc21 [Example 2, 2-(3-Amino-9-methyl-9H-pyrido[2,3-b]indol-2-yl)propan-2-ol]",43.48,−0.34,57.75,−0.31,8.6 ± 1.1,376.4 ± 164.0,showing a therapeutic effect,
"CC(C)(O)c1cc2c(cc1N)Oc1ccccc1O2 [Example 4, 2-(3-Aminodibenzo[b,e][1,4]dioxin-2-yl)propan-2-ol]",38.33,−0.27,48.10,−0.23,,,,good therapeutic effect
"CC(C)(O)c1cc2c(cc1N)Oc1cccnc1O2 [Example 19, 2-(7-Aminobenzo[5,6][1,4]dioxino[2,3-b]pyridin-8-yl)propan-2-ol]",19.40,−0.14,36.90,−0.25,,,,
CC(C)(O)c1cc2c(cc1N)Oc1cc(F)ccc1O2 [Example 20],23.91,−0.18,25.45,−0.14,,,,
CC(C)(O)c1cc2c(cc1N)Oc1ccc(F)cc1O2 [Example 21],6.92,−0.05,10.06,−0.05,,,,
"CC(C)(O)c1cc2c(cc1N)Oc1nccnc1O2 [Example 23, 2-(8-Aminobenzo[5,6][1,4]dioxino[2,3-b]pyrazin-7-yl)propan-2-ol]",16.24,−0.12,17.89,−0.11,,,,
CC(C)(O)c1cc2c(cc1N)Oc1cc(Cl)ccc1O2 [Example 25],4.87,−0.03,4.88,−0.03,,,,
CC(C)(O)c1cc2c(cc1N)Oc1ccc(Cl)cc1O2 [Example 26],2.02,−0.02,5.34,−0.03,,,,
"CC(C)(O)c1cc2c(cc1N)N(Cc1ccccc1)c1ccccc1O2 [Example 27, 2-(2-Amino-10-benzyl-10H-phenoxazin-3-yl)propan-2-ol]",14.37,−0.11,17.87,−0.10,,,,
"COC1c2ccccc2-c2cc(C(C)(C)O)c(N)cc21 (stereo not drawn) [Example 28, 2-(2-Amino-9-methoxy-9H-fluoren-3-yl)propan-2-ol]",3.77,−0.02,4.37,−0.03,,,,
"CC(C)(C)OC(=O)N1c2ccccc2Oc2cc(C(C)(C)O)c(N)cc21 [Example 29, tert-Butyl 2-amino-3-(2-hydroxypropan-2-yl)-10H-phenoxazine-10-carboxylate]",6.52,−0.04,6.53,−0.04,,,,
